This is an account of results in US4525358A, “2-[4-(Diphenylmethyl)-1-piperazinyl]-acetic acids and their amides” (UCB Pharmaceuticals, Inc., priority 1981, dated 1985).

Like-named read-outs stand apart in the source and are kept apart here.

The subject of data set [1] is bronchospasms induced by serotonin. In words: inhibition of serotonin-induced bronchospasms (Konzett and Roessler), spasmolytic activity. The format is in vivo, guinea pig. Particulars: for ED50: Cavia porcellus, iv, read-out: ID 50, inhibition of bronchospasms induced by serotonin. On the procedure: (§1) Anaesthetized and curarized guinea pigs are subjected to artificial ventilation. The endotracheal pressure is recorded. Repetitive bronchial spasms are induced by successive and progressive intravenous injections of serotonin and histamine, respectively. The test compounds are also administered intravenously.

Data set [2] has as its system bronchospasms induced by histamine. Briefly: inhibition of histamine-induced bronchospasms (Konzett and Roessler), antihistaminic activity. Particulars: for ED50: Cavia porcellus, iv, read-out: ID 50, inhibition of bronchospasms induced by histamine. The format is in vivo, guinea pig. As for the experimental part:
as §1

In data set [3] the test system is general behaviour of mice. Briefly: general behaviour of mice (Irwin's test), tranquilization. Type of data set: in vivo.
Another data set has as its system mice. Particulars: intraperitoneal, two animals out of three.
Data set [4] concerns passive cutaneous anaphylaxis. In words: passive cutaneous anaphylaxis test (PCA), antiallergic activity. The format is in vivo. Particulars: rats, per os; for ED50: Rattus norvegicus, po, 15 minutes before allergen, read-out: ID 50 per os (reduction of 50% of the surface area of the colored spot). As for the experimental part: This activity is determined in rats by means of the passive cutaneous anaphylaxis test (PCA) (see J. GOOSE and A. M. J. N. BlAIR, Immunology, 16, (1969), 749-760; and […] and D. ROEMER, Arzneimittel-Forschung, 28, (5), (1978), 770-782). Female rats are used, the sides of which have been partly shaved. Into the zone thus shaved there is injected intradermally, for passive sensitization of the animals, 0.05 ml of IGE antiovalbumin serum at a dilution such that, at the time of the PCA test, a distinct spot with a surface area of about 100 mm^2 appears at the point of injection. […] At the point of intradermal injection, there appears a distinct blue spot, the surface of which is measured. In order to test the activity of the compounds according to the present invention, the procedure is carried out in the same manner; however, the test compound is administered orally 72 hours after injection of the serum; 15 minutes after this administration, 0.25 ml of the solution of the allergen is injected intravenously; 30 minutes after the administration of the allergen, the surface of the blue spot is measured.

The mark [5] stands for this setting: guinea pig, intravenous, serotonin.
Where [6] appears, read: guinea pig, intravenous, histamine.

Take `COc1ccc(C(c2ccccc2)N2CCN(CCOCC(N)=O)CC2)cc1.Cl.Cl` (stereo not drawn) [E, 2-[2-[4-[(4-methoxyphenyl)phenylmethyl]-1-piperazinyl]ethoxy]-acetamide dihydrochloride]: the ED50 in data set [1] (setting [5]) amounted to 10 µmol/kg; in data set [2] (setting [6]), 0.67 µmol/kg. Moreover, the “Tranquilizing dose (first manifestations of tranquilization)” value (from here on “Tranquilizing dose”) in data set [3] (male mice, intraperitoneal) was determined as 136 mg/kg. Moreover, the “Lethal dose (2/3)” value with mice is given as 456 mg/kg.
As to `NC(=O)COCCN1CCN(C(c2ccccc2)c2ccccc2)CC1` [A, 2-[2-[4-(Diphenylmethyl)-1-piperazinyl]ethoxy]-acetamide], the values for the ED50 in data set [1] (setting [5]) and in data set [2] (setting [6]) were 0.78 µmol/kg and 0.23 µmol/kg, respectively. Further, the “Lethal dose (2/3)” value with mice is listed as 255 mg/kg.
In the case of `Cl.Cl.NC(=O)COCCOCCN1CCN(C(c2ccccc2)c2ccccc2)CC1` [F, 2-[2-[2-[4-(Diphenylmethyl)-1-piperazinyl]ethoxy]ethoxy]-acetamide dihydrochloride], the ED50 in data set [4] stood at 10.6 µmol/kg; in data set [1] (setting [5]) it was 0.32 µmol/kg; in data set [2] (setting [6]) it was 0.25 µmol/kg. The “Tranquilizing dose” value in data set [3] (male mice, intraperitoneal) is given as 94 mg/kg. In the data set with mice, the “Lethal dose (2/3)” value came out at 282 mg/kg.
Take `OCCOCCN1CCN(C(c2ccccc2)c2ccc(Cl)cc2)CC1` (stereo not drawn) [Hydroxyzine, 2-[2-[4-[(4-chlorophenyl)phenylmethyl]-1-piperazinyl]-ethoxy]-ethanol, reference compound]: the “Tranquilizing dose” value in data set [3] (mouse, in vivo, ip) is reported as 27 mg/kg.
Turning to `Cl.Cl.O=C(O)COCCOCCN1CCN(C(c2ccccc2)c2ccc(Cl)cc2)CC1` (stereo not drawn) [M, 2-[2-[2-[4-[(4-chlorophenyl)phenylmethyl]-1-piperazinyl]ethoxy]ethoxy]-acetic acid dihydrochloride], the ED50 in data set [1] (setting [5]) came out at 10 µmol/kg; in data set [2] (setting [6]), 0.79 µmol/kg. In addition, the “Tranquilizing dose” value in data set [3] (male mice, intraperitoneal) was 505 mg/kg. Moreover, the “Lethal dose (2/3)” value in the data set with mice was determined as 505 mg/kg.
Regarding `Cl.Cl.NC(=O)COCCN1CCN(C(c2ccccc2)c2ccccc2Cl)CC1` (stereo not drawn) [D, 2-[2-[4-[(2-chlorophenyl)phenylmethyl]-1-piperazinyl]ethoxy]-acetamide dihydrochloride], the ED50 in data set [1] (setting [5]) was 1.1 µmol/kg; in data set [2] (setting [6]), 0.63 µmol/kg. The “Tranquilizing dose” value in data set [3] (male mice, intraperitoneal) is over 460 mg/kg. Also, in the data set with mice, the “Lethal dose (2/3)” value is 460 mg/kg.
The like results for `O=C(O)COCCN1CCN(C(c2ccccc2)c2ccccc2)CC1` [K, 2-[2-[4-(diphenylmethyl)-1-piperazinyl]ethoxy]-acetic acid] were, in that order, 9.5 µmol/kg, 0.093 µmol/kg, 106 mg/kg and 708 mg/kg.
As for `O=C(O)COCCN1CCN(C(c2ccccc2)c2ccc(Cl)cc2)CC1` (stereo not drawn) [J, 2-[2-[4-[(4-chlorophenyl)phenylmethyl]-1-piperazinyl]ethoxy]-acetic acid], the “ID 50, inhibition of bronchospasms induced by serotonin” value in data set [1] (setting [5]) came out at 7.3 µmol/kg. The compound also showed an antihistaminic activity retained in data set [2] (guinea pig, intravenous, 1 μmol/kg single dose, after 5 hours) of 100%. For the same compound, the “ID 50, inhibition of bronchospasms induced by histamine” value in data set [2] (setting [6]) was 0.20 µmol/kg. For the same compound, the “Tranquilizing dose” value in data set [3] (male mice, intraperitoneal) is recorded as 138 mg/kg.
For the compound `O.O=C(O)COCCN1CCN(C(c2ccccc2)c2ccc(F)cc2)CC1` (stereo not drawn) [N, 2-[2-[4-[(4-fluorophenyl)phenylmethyl]-1-piperazinyl]ethoxy]-acetic acid hydrate], the ED50 amounted to 10.2 µmol/kg in data set [4], 2.1 µmol/kg in data set [1] (setting [5]) and 0.08 µmol/kg in data set [2] (setting [6]). For the same compound, the “Tranquilizing dose” value in data set [3] (male mice, intraperitoneal) stood at 372 mg/kg. In addition, in the data set with mice, the “Lethal dose (2/3)” value worked out at 372 mg/kg.
For `O=C(O)COCCN1CCN(C(c2ccccc2)c2ccc(Cl)cc2)CC1` (stereo not drawn) [I, 2-[2-[4-[(4-chlorophenyl)phenylmethyl]-1-piperazinyl]ethoxy]-acetic acid], the figures for the ED50 in data set [1] (setting [5]) and in data set [2] (setting [6]) were 9.44 µmol/kg and 0.205 µmol/kg, respectively.
Take `Cn1c(=O)c2[nH]cnc2n(C)c1=O` [Theophylline, reference compound]: the ED50 in data set [1] and in data set [2] was 10 µmol/kg in each case.
Consider `O=C([O-])COCCN1CCN(C(c2ccccc2)c2ccc(Cl)cc2)CC1.[K+]` (stereo not drawn) [H, potassium 2-[2-[4-[(4-chlorophenyl)phenylmethyl]-1-piperazinyl]ethoxy]-acetate], for which the ED50 in data set [1] is 7 µmol/kg; in data set [2], 0.23 µmol/kg. Also, the “Tranquilizing dose” value in data set [3] (male mice, intraperitoneal) is 46.2 mg/kg.
Turning to `Cl.Cl.O=C(O)COCCOCCN1CCN(C(c2ccccc2)c2ccccc2)CC1` [L, 2-[2-[2-[4-(diphenylmethyl)-1-piperazinyl]ethoxy]ethoxy]-acetic acid dihydrochloride], the ED50 in data set [1] (setting [5]) is 5.69 µmol/kg; in data set [2] (setting [6]), 0.39 µmol/kg. In addition, the “Tranquilizing dose” value in data set [3] (male mice, intraperitoneal) is reported as 141 mg/kg. Besides, the “Lethal dose (2/3)” value with mice was determined as 942 mg/kg.
On to `O=C1Nc2ccc(Cl)cc2C(c2ccccc2)=NC1O` (stereo not drawn) [Oxazepam, 7-chloro-1,3-dihydro-3-hydroxy-5-phenyl:2H-1,4-benzodiazepin-2-one, reference compound], for which the “Tranquilizing dose” value in data set [3] (male mice, intraperitoneal) turned out to be 2.6 mg/kg.
In the case of `NC(=O)COCCN1CCN(C(c2ccccc2)c2ccc(F)cc2)CC1` (stereo not drawn) [C, 2-[2-[4-[(4-fluorophenyl)phenylmethyl]-1-piperazinyl]ethoxy]-acetamide], the ED50 in data set [4] was 18.9 µmol/kg; in data set [1] (setting [5]), 0.94 µmol/kg; in data set [2] (setting [6]), 0.71 µmol/kg. Also, the “Tranquilizing dose” value in data set [3] (male mice, intraperitoneal) is 115 mg/kg. Also, the “Lethal dose (2/3)” value in the data set with mice is 386 mg/kg.
With `O=C(O)CN1CCN(C(c2ccccc2)c2ccccc2)CC1` [Compound 3, 2-[4-(diphenylmelthyl)-1-piperazinyl]-acetic acid, reference compound], in data set [4], the ED50 is over 320 µmol/kg and the “antiallergic activity (PCA), in words” value was “of little interest”. In data set [1] (setting [5]), the ED50 is over 32 µmol/kg and the “activity with regard to bronchospasms induced by serotonin (antispasmodic), in words” value is given as “considerbly less active”. Further, in data set [2] (setting [6]), the ED50 worked out at 5 µmol/kg and the “activity with regard to bronchospasms induced by histamine (antihistaminic), in words” value is “considerbly less active”.
In the case of `O=C(O)CN1CCN(C(c2ccccc2)c2ccc(Cl)cc2)CC1` (stereo not drawn) [Compound 4, reference compound], in data set [4], the ED50 is over 320 µmol/kg and the “antiallergic activity (PCA), in words” value is recorded as “of little interest”. In data set [1] (setting [5]), the ED50 was over 32 µmol/kg and the “activity with regard to bronchospasms induced by serotonin (antispasmodic), in words” value is recorded as “considerbly less active”. Besides, in data set [2] (setting [6]), the ED50 is 7.8 µmol/kg and the “activity with regard to bronchospasms induced by histamine (antihistaminic), in words” value is given as “considerbly less active”.
Regarding `Cl.Cl.NC(=O)COCCOCCN1CCN(C(c2ccccc2)c2ccc(Cl)cc2)CC1` (stereo not drawn) [G, 2-[2-[2-[4-[(4-chlorophenyl)phenylmethyl]-1-piperazinyl]ethoxy]ethoxy]-acetamide dihydrochloride], the results for the ED50 in data set [1] (setting [5]) and in data set [2] (setting [6]) were 0.66 µmol/kg and 1.14 µmol/kg, respectively. In data set [3] (male mice, intraperitoneal), the “Tranquilizing dose” value worked out at 34 mg/kg. Moreover, the “Lethal dose (2/3)” value in the data set with mice was 339 mg/kg.
Take `NC(=O)COCCN1CCN(C(c2ccccc2)c2ccc(Cl)cc2)CC1` (stereo not drawn) [B, 2-[2-[4-[(4-chlorophenyl)phenylmethyl]-1-piperazinyl]ethoxy]-acetamide]: the ED50 in data set [4] was 36.5 µmol/kg; in data set [1] (setting [5]), 0.88 µmol/kg; in data set [2] (setting [6]) it was 0.45 µmol/kg. In data set [3] (male mice, intraperitoneal), the “Tranquilizing dose” value was 38.7 mg/kg. Further, the “Lethal dose (2/3)” value in the data set with mice is recorded as 232 mg/kg.
